Reference: patent US20260248882A1, “USE OF ANNEXIN A5 IN HAIR GROWTH, HAIR NURTURING, HAIR CARE, HAIR LOSS PREVENTION, AND HAIR LOSS TREATMENT, AND RELATED PRODUCTS AND PHARMACEUTICAL COMPOSITIONS” (SHANGHAI CELLEAF BIOTECHNOLOGY CO., LTD, priority 2023, published 2026)

Key:
[1] = test system: mouse androgenetic hair loss model; assay: Hair growth observation in mouse androgenetic hair loss model (DHT-induced); type: in vivo; conditions: C57BL/6 male mice, depilated back, FIG. 1
Protocol: (§1) Experimental animals: C57BL/6 male mice, 5-7 weeks old, weighing around 20 g were housed in a 12 hour light/12 hour dark environment, with free access to food and water. The experiment set up control group (CTRL); model group (DHT); A5-Low group (treated with Annexin A5, injected once every three days); and A5-High group (treated with Annexin A5, injected once a day). Each group consists of 6 mice.
(§2) Modeling and administration: Dihydrotestosterone (DHT) was used to induce the formation of the mouse androgenetic hair loss model. In addition to the control group, the other three groups of mice received subcutaneous injection of DHT solution (5 mg/mL) at the neck, 0.01 mL for each, for a total of 2 weeks. The control group was injected with an equal volume of physiological saline. After 2 weeks, all mice were shaved and their back hair was removed using a shaving knife. Then hair removal cream was used to further remove residual hair from the shaved area of the mice. After hair removal, both the control group and the model group were injected daily with […] of PBS in the hair removal area, divided into 10 injection points, with 20 μL per point. The A5-Low group received Annexin A5 treatment once every three days, while the A5-High group received Annexin A5 treatment once a day. […] The status of hair growth on the back of mice was observed every day and recorded by taking photos. […]

[2] = test system: mouse androgenetic hair loss model; assay: Histological HE staining analysis of skin sections; type: in vivo; conditions: DHT model mice treated with Annexin A5 for 2 weeks, FIG. 2
Protocol: as §1
Modeling and administration: Dihydrotestosterone (DHT) was used to induce the formation of the mouse androgenetic hair loss model. In addition to the control group, the other three groups of mice received subcutaneous injection of DHT solution (5 mg/mL) at the neck, 0.01 mL for each, for a total of 2 weeks. The control group was injected with an equal volume of physiological saline. After 2 weeks, all mice were shaved and their back hair was removed using a shaving knife. Then hair removal cream was used to further remove residual hair from the shaved area of the mice. After hair removal, both the control group and the model group were injected daily with […] of PBS in the hair removal area, divided into 10 injection points, with 20 μL per point. The A5-Low group received Annexin A5 treatment once every three days, while the A5-High group received Annexin A5 treatment once a day. The injection method was subcutaneous injection at 10 points in the hair removal area, with 20 μL of Annexin A5 at a concentration of 50 μg/mL injected at each point. The status of hair growth on the back of mice was observed every day and recorded by taking photos. Samples were collected after 16 days.
Tissue sampling: After drug treatment, mice were euthanized by cervical dislocation. […]
Sections were taken for xylene dewaxing and gradient ethanol hydration, and then hematoxylin and eosin staining was performed. […] The next day, an optical microscope was used to observe and record, and the number of hair follicles was statistical analyzed.

[3] = test system: Ki67 (cell proliferation marker); assay: Ki67 immunohistochemical staining of paraffin skin sections; type: in vivo, mouse; conditions: DHT model mice after Annexin A5 treatment; FIG. 3
Protocol: as §1, §2

[4] = test system: CD31 (vascular angiogenesis marker); assay: CD31 immunohistochemical staining of paraffin skin sections; type: in vivo, mouse; conditions: DHT model mice after Annexin A5 treatment; FIG. 3
Protocol: as §1, §2

androgen receptor (AR) = assay: Western Blot of androgen receptor expression in isolated dermal papillae; type: in vivo, mouse; conditions: DHT model mice, A5-Low/A5 High groups, FIG. 4
Protocol: as §1
(§3) Modeling and administration: Dihydrotestosterone (DHT) was used to induce the formation of the mouse androgenetic hair loss model. In addition to the control group, the other three groups of mice received subcutaneous injection of DHT solution (5 mg/mL) at the neck, 0.01 mL for each, for a total of 2 weeks. The control group was injected with an equal volume of physiological saline. After 2 weeks, all mice were shaved and their back hair was removed using a shaving knife. […] The status of hair growth on the back of mice was observed every day and recorded by taking photos. […]
(§4) Sample Treatment: After euthanizing the mice, 1 cm^2 skin tissue was collected, and the hair on the skin surface was removed with a scissors as much as possible. […] The supernatant was collected by high-speed centrifugation, the protein concentration was determined using BCA method, and protein samples were prepared according to Western Blot requirements. […]

[5] = test system: transforming growth factor β1 (TGF β-1); assay: Western Blot of TGF-β1 expression in isolated dermal papillae; type: in vivo, mouse; conditions: DHT model mice, A5-Low/A5 High groups, FIG. 4
Protocol: as §1, §3, §4

## Annexin A5: calcium phospholipid binding protein composed of a single polypeptide chain of 319 amino acids
[1]; A5-Low and A5-High groups
  entry into anagen phase (skin turning black): entered the anagen phase earlier
[1]; subcutaneous Annexin A5 50 μg/mL, 10 points x 20 μL, once every three days or once a day, observed 16 days
  hair growth ability: significantly enhanced hair growth ability
[2]
  dermal thickness: did not affect
  follicle size: did not affect
  number of hair follicle dermal papillae: did not affect
[3]
  proliferation and survival ability of cells in the hair follicles (Ki67): improved
[4]
  number of capillaries around the dermal papillae (CD31): increased
Androgen receptor (AR)
  AR expression in dermal papillae: significant inhibition
[5]
  TGF-β1 expression in dermal papillae: significant inhibition
